Values joined by “and” are separate entries in the source; they are usually repeats but may differ in a detail not shown here. Equal entries are not always repeated. Inconclusive results and toxic doses are left out.

The experiment deals with BDF1 mice, P388 leukemia ip, median survival T/C. Briefly: NCI In Vivo Anticancer Drug Screen. Data for tumor model P388 Leukemia (intraperitoneal) in B6D2F1 (BDF1) mice. As to conditions: endpoint: median survival time, higher = longer survival. In short, it runs like this:
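Mice carrying the transplantable tumour receive compound or vehicle. Survival is followed in each arm, and the treated measure is divided by the vehicle measure.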

Where [1] appears, read: dose: 100.0 mg/kg/injection, schedule: Q01DX009 (ip), vehicle: saline with Tween-80.
Where [2] appears, read: dose: 200.0 mg/kg/injection, schedule: Q01DX009 (ip), vehicle: saline with Tween-80.
Setting [3] is: dose: 25.0 mg/kg/injection, schedule: Q04DX003 (ip), vehicle: saline.

Regarding `CC(=O)OC1CCC2C3CCC4=C(Cl)C(=O)CCC4C3CCC12C` (stereo not given), the T/C (dose: 100.0 mg/kg/injection, schedule: Q04DX003 (sc), vehicle: steriod suspending solution) was 90 % of control; the T/C (dose: 200.0 mg/kg/injection, schedule: Q04DX003 (sc), vehicle: steriod suspending solution) was 100 % of control; the T/C (dose: 400.0 mg/kg/injection, schedule: Q04DX003 (sc), vehicle: steriod suspending solution) is 100 % of control.
Consider `O=C1C(Cl)=C(Cl)C(=O)c2ccccc21`, for which the T/C is, setting by setting: (dose: 6.25 mg/kg/injection, schedule: Q01DX009 (ip), vehicle: Klucel (hydroxypropylcellulose) (HPC)) 115 % of control; (dose: 12.5 mg/kg/injection, schedule: Q01DX009 (ip), vehicle: Klucel (hydroxypropylcellulose) (HPC)) 115 % of control; (dose: 25.0 mg/kg/injection, schedule: Q01DX009 (ip), vehicle: Klucel (hydroxypropylcellulose) (HPC)) 112 % of control.
For `C=CCCCCCCCCC(=O)NCc1nc2ccccc2[nH]1`, the T/C under setting [1] was 100 % of control; the T/C under setting [2] is 109 % of control; the T/C (dose: 400.0 mg/kg/injection, schedule: Q01DX009 (ip), vehicle: saline with Tween-80) is 95 % of control.
With `[Na+]`, the T/C by setting is: (dose: 3.0 mg/kg/injection, schedule: Q01DX009 (ip), vehicle: saline) 104 % of control; (dose: 6.0 mg/kg/injection, schedule: Q01DX009 (ip), vehicle: saline) 95 % of control; (dose: 12.0 mg/kg/injection, schedule: Q01DX009 (ip), vehicle: saline) 104 % of control; (dose: 12.5 mg/kg/injection, schedule: Q04DX003 (ip), vehicle: saline) 109 % of control; under setting [3], 95 % of control.
Turning to `NC1(C(=O)O)CCCC1`, the T/C was 100 % of control (dose: 20.0 mg/kg/injection, schedule: Q01DX010 (ip), vehicle: water); 100 % of control and 120 % of control (dose: 22.5 mg/kg/injection, schedule: Q01DX010 (ip), vehicle: saline); 93 % of control (dose: 25.0 mg/kg/injection, schedule: Q01DX009 (ip), vehicle: carboxymethylcellulose (CMC)); 110 % of control (dose: 45.0 mg/kg/injection, schedule: Q01DX010 (ip), vehicle: saline); 92 % of control (dose: 50.0 mg/kg/injection, schedule: Q01DX009 (ip), vehicle: carboxymethylcellulose (CMC)); 110 % of control (dose: 80.0 mg/kg/injection, schedule: Q01DX010 (ip), vehicle: water). Moreover, the T/C reads like this: (dose: 90.0 mg/kg/injection, schedule: Q01DX010 (ip), vehicle: saline) 185 % of control; under setting [1], 100 % of control; (dose: 200.0 mg/kg/injection, schedule: Q01DX009 (ip), vehicle: carboxymethylcellulose (CMC)) 87 % of control; under setting [2], 90 % of control.
As to `[Cl][Co][Cl].[NH-]CCC[NH-].[NH-]CCC[NH-]`, the T/C runs as follows: under setting [3], 105 % of control; (dose: 50.0 mg/kg/injection, schedule: Q04DX003 (ip), vehicle: saline) 110 % of control.
Take `O=C(CC(O)(C(F)(F)F)C(F)(F)F)c1ccco1`: the T/C runs as follows: (dose: 17.0 mg/kg/injection, schedule: Q01DX009 (ip), vehicle: saline) 100 % of control; (dose: 25.0 mg/kg/injection, schedule: Q01DX009 (ip), vehicle: saline with Tween-80) 123 % of control; (dose: 33.0 mg/kg/injection, schedule: Q01DX009 (ip), vehicle: saline) 100 % of control; (dose: 50.0 mg/kg/injection, schedule: Q01DX009 (ip), vehicle: saline) 100 % of control; (dose: 50.0 mg/kg/injection, schedule: Q04DX003 (ip), vehicle: saline with Tween-80) 120 % of control; (dose: 75.0 mg/kg/injection, schedule: Q01DX009 (ip), vehicle: saline) 100 % of control. The T/C is 123 % of control under setting [1] and 120 % of control (dose: 100.0 mg/kg/injection, schedule: Q04DX003 (ip), vehicle: saline with Tween-80).
With `Oc1c(Cl)cc(Cl)cc1/C=N/c1nc(-c2ccc(Cl)cc2)cs1`, the T/C reads like this: (dose: 0.78 mg/kg/injection, schedule: Q01DX009 (ip), vehicle: saline with Tween-80) 100 % of control; (dose: 1.56 mg/kg/injection, schedule: Q01DX009 (ip), vehicle: saline with Tween-80) 96 % of control; (dose: 3.12 mg/kg/injection, schedule: Q01DX009 (ip), vehicle: saline with Tween-80) 105 % of control.
As for `CC(C)(C)[O][Pb]([c]1ccccc1)([c]1ccccc1)[c]1ccccc1`, the T/C reads like this: (dose: 0.39 mg/kg/injection, schedule: Q01DX009 (ip), vehicle: saline) 100 % of control; (dose: 0.85 mg/kg/injection, schedule: Q04DX003 (ip), vehicle: saline) 105 % of control; (dose: 1.02 mg/kg/injection, schedule: Q01DX009 (ip), vehicle: saline) 104 % of control and 115 % of control; (dose: 1.7 mg/kg/injection, schedule: Q04DX003 (ip), vehicle: saline) 110 % of control; (dose: 2.34 mg/kg/injection, schedule: Q01DX009 (ip), vehicle: saline) 113 % of control and 120 % of control; (dose: 3.4 mg/kg/injection, schedule: Q01DX009 (ip), vehicle: saline) 90 % of control. Moreover, the T/C (dose: 3.4 mg/kg/injection, schedule: Q04DX003 (ip), vehicle: saline) was 90 % of control; the T/C (dose: 5.0 mg/kg/injection, schedule: Q04DX003 (ip), vehicle: saline) was 104 % of control; the T/C (dose: 5.75 mg/kg/injection, schedule: Q01DX001 (ip), vehicle: Klucel (hydroxypropylcellulose) (HPC)) is 88 % of control; the T/C (dose: 7.7 mg/kg/injection, schedule: Q04DX003 (ip), vehicle: saline) was 86 % of control.
`CCOC(=O)Cc1c[nH]c2ccc(N(CCCl)CCCl)cc12`: the T/C is, setting by setting: (dose: 0.11 mg/kg/injection, schedule: Q04DX003 (ip), vehicle: Klucel (hydroxypropylcellulose) (HPC)) 116 % of control; (dose: 0.17 mg/kg/injection, schedule: Q04DX003 (ip), vehicle: Klucel (hydroxypropylcellulose) (HPC)) 120 % of control; (dose: 0.26 mg/kg/injection, schedule: Q04DX003 (ip), vehicle: Klucel (hydroxypropylcellulose) (HPC)) 100 % of control; (dose: 0.5 mg/kg/injection, schedule: Q01DX009 (ip), vehicle: Klucel (hydroxypropylcellulose) (HPC)) 154 % of control; (dose: 0.8 mg/kg/injection, schedule: Q01DX009 (ip), vehicle: Klucel (hydroxypropylcellulose) (HPC)) 175 % of control; (dose: 0.9 mg/kg/injection, schedule: Q04DX003 (ip), vehicle: Klucel (hydroxypropylcellulose) (HPC)) 154 % of control. In addition, the T/C was 250 % of control (dose: 1.3 mg/kg/injection, schedule: Q01DX009 (ip), vehicle: Klucel (hydroxypropylcellulose) (HPC)); 163 % of control (dose: 1.4 mg/kg/injection, schedule: Q04DX003 (ip), vehicle: Klucel (hydroxypropylcellulose) (HPC)); 272 % of control (dose: 2.0 mg/kg/injection, schedule: Q01DX009 (ip), vehicle: Klucel (hydroxypropylcellulose) (HPC)); 204 % of control (dose: 2.2 mg/kg/injection, schedule: Q04DX003 (ip), vehicle: Klucel (hydroxypropylcellulose) (HPC)); 230 % of control and 272 % of control (dose: 3.0 mg/kg/injection, schedule: Q01DX009 (ip), vehicle: Klucel (hydroxypropylcellulose) (HPC)); 222 % of control (dose: 3.3 mg/kg/injection, schedule: Q04DX003 (ip), vehicle: Klucel (hydroxypropylcellulose) (HPC)). Further, the T/C was 154 % of control (dose: 4.5 mg/kg/injection, schedule: Q01DX009 (ip), vehicle: Klucel (hydroxypropylcellulose) (HPC)); 245 % of control and 272 % of control (dose: 5.0 mg/kg/injection, schedule: Q04DX003 (ip), vehicle: Klucel (hydroxypropylcellulose) (HPC)); 107 % of control (dose: 6.0 mg/kg/injection, schedule: Q01DX009 (ip), vehicle: Klucel (hydroxypropylcellulose) (HPC)); 240 % of control (dose: 7.5 mg/kg/injection, schedule: Q04DX003 (ip), vehicle: Klucel (hydroxypropylcellulose) (HPC)); 272 % of control (dose: 8.0 mg/kg/injection, schedule: Q04DX003 (ip), vehicle: Klucel (hydroxypropylcellulose) (HPC)); 272 % of control (dose: 12.5 mg/kg/injection, schedule: Q04DX003 (ip), vehicle: Klucel (hydroxypropylcellulose) (HPC)).
On to `CCCCNC(C)(C)C(SS)c1ccc(Cl)cc1` (stereo not given), for which the T/C by setting is: (dose: 50.0 mg/kg/injection, schedule: Q01DX009 (ip), vehicle: Klucel (hydroxypropylcellulose) (HPC)) 100 % of control; (dose: 100.0 mg/kg/injection, schedule: Q01DX009 (ip), vehicle: Klucel (hydroxypropylcellulose) (HPC)) 115 % of control; (dose: 100.0 mg/kg/injection, schedule: Q04DX003 (ip), vehicle: Klucel (hydroxypropylcellulose) (HPC)) 95 % of control; (dose: 200.0 mg/kg/injection, schedule: Q01DX009 (ip), vehicle: Klucel (hydroxypropylcellulose) (HPC)) 105 % of control; (dose: 200.0 mg/kg/injection, schedule: Q04DX003 (ip), vehicle: Klucel (hydroxypropylcellulose) (HPC)) 100 % of control.

The values are drawn from PubChem BioAssay AID328 (DTP/NCI, 2004).
